The values below come from patent US5441732A, “Reversible gelation emulsion compositions and methods of use” (Allergan, Inc., priority 1992, dated 1995).

Like-named read-outs stand apart in the source and are kept apart here.

The conditions of data set [1]: cited from earlier work.
Data set [2] in a line: Drug solubility in oil at room temperature. In kind it is physicochemical. The conditions noted are these: for Drug solubility in Miglyol: Miglyol 812.

Turning to `CC(C(=O)O)c1ccc(-c2ccccc2)c(F)c1` (stereo not shown) [Flurbiprofen (free acid)], the “water solubility” value in data set [1] (pH 4.0) is “very small”. The “water solubility” value in data set [1] (pH 7.4) was “higher”. Moreover, in data set [2], the “Drug solubility in Diethyl Phthalate” value is recorded as 12-20% and the “Drug solubility in Miglyol” value is 2-4%.
In the case of `CC(=O)[C@@]1(O)CC[C@H]2[C@@H]3C[C@H](C)C4=CC(=O)C=C[C@]4(C)[C@@]3(F)[C@@H](O)C[C@@]21C` [Fluorometholone], in data set [2], the “Drug solubility in Diethyl Phthalate” value is given as 0.075%, the “solubility in diethyl phthalate” value is “relatively low” and the “Drug solubility in Miglyol” value is recorded as less than 0.001%.
